The subject of data set [1] is Rattus norvegicus. The data set is described as follows: Neuroprotective activity against middle cerebral artery occlusion induced cerebral ischemia reperfusion rat model assessed as increase in brain GSH level at 10 mg/kg, ip preincubated for 0.5 hrs followed by reperfusion and measured after 24 hrs. The format is functional, organism-based.
Data set [2] in a line: Cytotoxicity against mouse BEND3 cells assessed as inhibition of cell viability at 2.5 to 50 uM incubated for 24 hrs by MTT assay. Format: toxicity, cell-based. Particulars: dose 2.5-50 µM, read-out: Activity. For orientation: Tetrazolium assays rely on reduction of a dye to a coloured formazan, in cell work by metabolically active cells.
Data set [3] has as its system PC-12. In words: Cytotoxicity against rat PC-12 cells assessed as inhibition of cell viability at 2.5 to 50 uM incubated for 24 hrs by MTT assay. The format is toxicity, cell-based. Particulars: pc-12, 24 h, dose 2.5-50 µM.
The test system of data set [4] is Rattus norvegicus. In words: Neuroprotective activity against middle cerebral artery occlusion induced cerebral ischemia reperfusion rat model assessed as decrease in brain SOD level at 10 mg/kg, ip preincubated for 0.5 hrs followed by reperfusion and measured after 24 hrs. The format is functional, organism-based.
Data set [5] deals with Rattus norvegicus. The data set is described as follows: Neuroprotective activity against middle cerebral artery occlusion induced cerebral ischemia reperfusion rat model assessed infarct volume volume at 10 mg/kg, ip preincubated for 0.5 hrs followed by reperfusion and measured after 24 hrs by TTC staining based assay relative to control. The format is functional, organism-based.

A short description of data set [6]: Stability of compound in phosphate buffer assessed as parent compound remaining after 48 hrs by HPLC analysis. Format: physicochemical. The note with it: read-out: Stability.
In data set [7] the test system is PC-12. The data set is described as follows: Neuroprotective activity in rat PC12 cells assessed as reduction in H2O2-induced ROS generation at 20 to 100 uM preincubated for 2 hrs followed by H2O2 stimulation and measured after 2 hrs by DCFH-DA staining based fluorescence microscopic analysis. Format: functional, cell-based. Particulars: dose 20-100 µM.
The test system of data set [8] is Rattus norvegicus. The data set is described as follows: Neuroprotective activity against middle cerebral artery occlusion induced cerebral ischemia reperfusion rat model assessed as decrease in brain MDA level at 10 mg/kg, ip preincubated for 0.5 hrs followed by reperfusion and measured after 24 hrs. The format is functional, organism-based.
In data set [9] the test system is PC-12. The data set is described as follows: Neuroprotective activity against H2O2-induced cytotoxicity in rat PC12 cells assessed as increase in cell viability at 2.5 to 100 uM preincubated for 2 hrs followed by H2O2 stimulation and measured after 2 hrs by MTT assay. Format: functional, cell-based. Particulars: dose 2.5-100 µM.
The subject of data set [10] is Rattus norvegicus. In words: Neuroprotective activity against middle cerebral artery occlusion induced cerebral ischemia reperfusion rat model assessed decrease in morphological changes in brain at 10 mg/kg, ip preincubated for 0.5 hrs followed by reperfusion and measured after 24 hrs by hematoxylin and eosin staining based microscopy. The format is functional, organism-based.

Data set [11] can be described thus: n-Octanol-water partition coefficient, logP of the compound at 1 mg and measured after 2 hrs by HPLC analysis. The format is physicochemical.
Data set [12] has as its system Rattus norvegicus. The data set is described as follows: Neuroprotective activity against middle cerebral artery occlusion induced cerebral ischemia reperfusion rat model assessed decrease in neuronal loss in brain at 10 mg/kg, ip preincubated for 0.5 hrs followed by reperfusion and measured after 24 hrs by hematoxylin and eosin staining based microscopy. The format is functional, organism-based.

Data set [13] has as its system PC-12. The data set is described as follows: Antioxidant activity in rat PC12 cells assessed as reduction in H2O2-induced ROS level at 20 to 100 uM preincubated for 2 hrs followed by H2O2 stimulation and measured after 2 hrs by DCFH-DA staining based fow cytometry. The format is functional. On the set-up: scale not given: the % may be the effect or the level left. Particulars: dose 20-100 µM.

In data set [14] the test system is PC-12. The data set is described as follows: Cytotoxicity against rat PC-12 cells assessed as inhibition of cell viability at 20 to 50 uM incubated for 24 hrs by MTT assay. Format: toxicity, cell-based. The note with it: pc-12, 24 h, dose 20-50 µM.
Data set [15] can be described thus: Cytotoxicity against mouse BEND3 cells assessed as inhibition of cell viability at 20 to 50 uM incubated for 24 hrs by MTT assay. Format: toxicity, cell-based. The note with it: bend3, 24 h, dose 20-50 µM.

Activity calls are given as the source filed them. No cut-off for these calls is given here. Bounds are passed on as bounds.

Usually logP stands for a log measure of how a compound divides between an organic and an aqueous phase. Turning to `O=c1c(O)c(-c2ccc(O)c(O)c2)oc2cc(OCc3cn(C[C@H]4O[C@@H](O)[C@H](O)[C@@H](O)[C@@H]4O)nn3)cc(O)c12`, the result in the data set on Rattus norvegicus [1], with Rattus norvegicus [4], in the data set on Rattus norvegicus [5], in the data set on PC-12 [7], in the data set with Rattus norvegicus [8] and with PC-12 [9] was Active. Further, the result with Rattus norvegicus [10] and in the data set with Rattus norvegicus [12] was Active. For the same compound, the inhibition at 24 h, up to 50 µM in data set [2] was over 80%. Besides, the results for the Activity in the data set on PC-12 [3] and in the data set with PC-12 [13] were over 80% and 15.2%, respectively. Moreover, the remaining at 48 h in data set [6] stood at 73.2%. Also, the logP at 2 h in data set [11] was -0.23.
Regarding `O=c1c(O)c(-c2ccc(O)c(O)c2)oc2cc(O)cc(O)c12` [QUERCETIN], the result in the data set with Rattus norvegicus [1], in the data set on Rattus norvegicus [4], with Rattus norvegicus [5], with PC-12 [7], in the data set on Rattus norvegicus [8] and in the data set with PC-12 [9] was Active. The result with Rattus norvegicus [10] and in the data set with Rattus norvegicus [12] was Active. The Activity result in the data set with PC-12 [14] is given as “Toxic”; in data set [15], “Toxic”; in the data set with PC-12 [13], 21.56%. The remaining at 48 h in data set [6] came to 11.2%. The same compound yielded a lipophilicity (logP) at 2 h in data set [11] of 1.38.
On to `O=c1c(O)c(-c2ccc(O)c(OCc3cn(C[C@H]4O[C@@H](O)[C@H](O)[C@@H](O)[C@@H]4O)nn3)c2)oc2cc(OCc3cn(C[C@H]4O[C@@H](O)[C@H](O)[C@@H](O)[C@@H]4O)nn3)cc(O)c12`, for which the outcome in the data set with Rattus norvegicus [1], in the data set with Rattus norvegicus [4], in the data set on Rattus norvegicus [5], in the data set on PC-12 [7], with Rattus norvegicus [8] and with PC-12 [9] was Active. The outcome in the data set on Rattus norvegicus [10] and in the data set on Rattus norvegicus [12] was Active. For the same compound, the inhibition at 24 h, up to 50 µM in [2] was over 80%. Further, the Activity with PC-12 [3] was over 80%; in the data set with PC-12 [13], 5.06%. The remaining at 48 h in data set [6] is 81.5%. This compound also registered a logP at 2 h in data set [11] of -1.12.

For the origin of these results see ChEMBL document CHEMBL5214936, “Synthesis and evaluation of glycosylated quercetin to enhance neuroprotective effects on cerebral ischemia-reperfusion” (Bioorg Med Chem, 2022).
